Drawing on patent US12084436B2, “Heterocyclic compound” (Takeda Pharmaceutical Company Limited, priority 2019, dated 2024), this text covers acetylation of tubulin, therapeutic effectiveness and inhibition for 15 molecules.

In assay [1] the test system is tauopathy mouse model. As to conditions: cited from earlier work.
Assay [2] deals with T1, HDAC6 enzyme (Homo sapiens, UniProt Q9UBN7).
T1 construct: prepared by transducing full length HDAC6 gene into Sf-9 insect cells; GST; purchased SignalChem; host or cells: Sf-9 insect cells
T1 sequence (Q9UBN7 1-1215): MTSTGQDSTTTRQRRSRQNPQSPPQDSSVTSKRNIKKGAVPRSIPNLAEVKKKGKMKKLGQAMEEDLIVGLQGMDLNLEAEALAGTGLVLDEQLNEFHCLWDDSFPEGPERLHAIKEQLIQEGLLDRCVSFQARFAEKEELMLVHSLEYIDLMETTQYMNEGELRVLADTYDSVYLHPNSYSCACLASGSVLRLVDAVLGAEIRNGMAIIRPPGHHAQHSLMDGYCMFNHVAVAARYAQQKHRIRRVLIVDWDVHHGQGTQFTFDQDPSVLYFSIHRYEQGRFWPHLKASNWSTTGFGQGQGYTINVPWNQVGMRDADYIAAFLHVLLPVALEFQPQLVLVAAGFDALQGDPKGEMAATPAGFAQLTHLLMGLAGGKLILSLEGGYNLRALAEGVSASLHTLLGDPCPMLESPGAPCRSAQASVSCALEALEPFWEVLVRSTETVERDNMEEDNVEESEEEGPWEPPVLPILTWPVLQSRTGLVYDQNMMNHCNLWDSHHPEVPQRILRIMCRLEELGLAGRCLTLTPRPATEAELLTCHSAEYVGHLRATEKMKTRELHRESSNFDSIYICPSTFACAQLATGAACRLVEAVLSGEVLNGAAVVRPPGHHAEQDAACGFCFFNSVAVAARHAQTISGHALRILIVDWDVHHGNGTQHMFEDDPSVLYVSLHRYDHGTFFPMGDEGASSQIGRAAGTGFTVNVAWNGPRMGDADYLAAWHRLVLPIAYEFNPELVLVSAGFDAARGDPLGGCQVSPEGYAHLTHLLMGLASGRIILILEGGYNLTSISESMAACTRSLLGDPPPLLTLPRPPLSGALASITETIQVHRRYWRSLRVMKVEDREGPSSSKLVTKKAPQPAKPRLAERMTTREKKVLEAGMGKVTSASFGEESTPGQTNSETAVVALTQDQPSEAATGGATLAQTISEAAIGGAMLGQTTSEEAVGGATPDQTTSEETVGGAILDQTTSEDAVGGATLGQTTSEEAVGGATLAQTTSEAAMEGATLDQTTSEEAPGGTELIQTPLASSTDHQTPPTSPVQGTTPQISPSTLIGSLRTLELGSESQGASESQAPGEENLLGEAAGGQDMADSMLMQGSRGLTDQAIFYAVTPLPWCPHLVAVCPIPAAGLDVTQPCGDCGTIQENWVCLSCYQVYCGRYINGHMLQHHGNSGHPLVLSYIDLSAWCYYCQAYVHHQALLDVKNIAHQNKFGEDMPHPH
Description: HDAC6 enzyme inhibitory assay (HDAC-Glo I/II Assay kit, luminescence). Format: biochemical. As to conditions: 10 μM test compound; wells without enzyme = 100% inhibition; read-out: HDAC6 inhibitory rate (%) (10 μM). The method in brief:
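Full-length human HDAC6, GST-purified from Sf-9 cells, was preincubated with compound for 60 min at room temperature in Tris-HCl pH 7.5 buffer with glutathione and Tween-20. Substrate-developer was then added, and luminescence was read after 20 min at room temperature. Inhibition was expressed relative to no-enzyme wells, taken as 100% inhibition.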

As to `CN1CCc2c(c3ccccc3n2Cc2ccc(C(=O)NO)cc2)C1` [Tubastatin A], in assay [1], the acetylation of tubulin result was “increases acetylation of tubulin” and the therapeutic effectiveness entry is “shows therapeutic effectiveness”. With `CC(NN1Cc2ccc(-c3nnc(C(F)F)o3)cc2C1=O)c1ccc(F)cc1` (stereo not shown) [Example 22c, 6-[5-(difluoromethyl)-1,3,4-oxadiazol-2-yl]-2-{[1-(4-fluorophenyl)ethyl]amino}-2,3-dihydro-1H-isoindol-1-one], in assay [2], the inhibition at 10 µM is 100%. Take `CN1C(=O)c2cc(-c3nnc(C(F)F)o3)cnc2C[C@]1(C)c1cccc(F)c1` [Example 53b, (7R)-3-[5-(difluoromethyl)-1,3,4-oxadiazol-2-yl]-7-(3-fluorophenyl)-6,7-dimethyl-7,8-dihydro-1,6-naphthyridin-5(6H)-one]: in assay [2], the inhibition at 10 µM amounted to 98%.

Take `N#Cc1ccc(Cn2ccnc2-c2cc(F)cc(-c3nnc(C(F)F)o3)c2)cn1` [Example 66a, 5-[(2-{3-[5-(difluoromethyl)-1,3,4-oxadiazol-2-yl]-5-fluorophenyl]-1H-imidazol-1-yl)methyl]pyridine-2-carbonitrile]: in assay [2], the inhibition at 10 µM was found to be 98%. Still for that read-out and setting: the same measure for `Fc1cc(-c2nnc(C(F)F)o2)cc(-c2nccn2CC2CCCOC2)c1` (stereo not shown) [Example 29a, 2-(difluoromethyl)-5-(3-fluoro-5-{1-[(oxan-3-yl)methyl]-1H-imidazol-2-yl}phenyl)-1,3,4-oxadiazole]: 99%. Consider `CN1C(=O)c2cc(-c3nnc(C(F)F)o3)ccc2O[C@]1(C)c1ccccc1` [Example 6b, (2R)-6-[5-(difluoromethyl)-1,3,4-oxadiazol-2-yl]-2,3-dimethyl-2-phenyl-2,3-dihydro-4H-1,3-benzoxazin-4-one], for which the inhibition at 10 µM in assay [2] was determined as 99%. As to `O=C1NN(c2ccc(F)cc2)Cc2ncc(-c3nnc(C(F)F)o3)cc21` [Example 3b, 3-[5-(difluoromethyl)-1,3,4-oxadiazol-2-yl]-7-(4-fluorophenyl)-7,8-dihydropyrido[2,3-d]pyridazin-5(6H)-one], the inhibition at 10 µM in assay [2] stood at 101%.

For `COc1ccccc1Cn1ccnc1-c1cc(-c2nnc(C(F)F)o2)ccn1` [Example 84a, 4-[5-(difluoromethyl)-1,3,4-oxadiazol-2-yl]-2-{1-[(2-methoxyphenyl)methyl}-1H-imidazol-2-yl}pyridine], the inhibition at 10 µM in assay [2] turned out to be 100%. As to `O=C1CCCN1CCOc1cccnc1-c1cc(F)cc(-c2nnc(C(F)F)o2)c1` [Example 15a, 1-{2-[(2-{3-[5-(difluoromethyl)-1,3,4-oxadiazol-2-yl]-5-fluorophenyl}pyridin-3-yl)oxy]ethyl}pyrrolidin-2-one], the inhibition at 10 µM in assay [2] worked out at 92%. The same measure, in the same setting: the same measure for `CC(C)(C)OC(=O)NN1Cc2ccc(-c3nnc(C(F)F)o3)cc2C1=O` [Example 3c, tert-butyl {6-[5-(difluoromethyl)-1,3,4-oxadiazol-2-yl]-1-oxo-1,3-dihydro-2H-isoindol-2-yl}carbamate]: 99%; for `FC(F)c1nnc(-c2ccnc(-c3ncc(Cl)n3Cc3ccccn3)c2)o1` [Example 38a, 2-[5-chloro-1-[(pyridin-2-yl)methyl]-1H-imidazol-2-yl}-4-[5-(difluoromethyl)-1,3,4-oxadiazol-2-yl]pyridine]: 98%.

Consider `CN1C(=O)c2cc(-c3nnc(C(F)F)o3)ccc2OC1(C)c1ccc(F)cc1` (single isomer, unassigned; isomer 1) [Example 8b, 6-[5-(difluoromethyl)-1,3,4-oxadiazol-2-yl]-2-(4-fluorophenyl)-2,3-dimethyl-2,3-dihydro-4H-1,3-benzoxazin-4-one (Optical Isomer 1)], for which, in assay [2], the inhibition at 10 µM was 100%.

Take `Fc1cc(-c2nnc(C(F)F)o2)cc(-c2ncccc2OCc2ccccn2)c1` [Example 11a, 2-{3-[5-(difluoromethyl)-1,3,4-oxadiazol-2-yl]-5-fluorophenyl}-3-[(pyridin-2-yl)methoxy]pyridine]: in assay [2], the inhibition at 10 µM worked out at 94%. Take `O=C1c2cc(-c3nnc(C(F)F)o3)ccc2CN1NC1CCC(F)(F)CC1` [Example 35c, 2-[(4,4-difluorocyclohexyl)amino]-6-[5-(difluoromethyl)-1,3,4-oxadiazol-2-yl]-2,3-dihydro-1H-isoindol-1-one]: in assay [2], the inhibition at 10 µM amounted to 93%. With `Fc1cc(-c2nnc(C(F)F)o2)cc(-c2nccn2Cc2ccccc2)c1` [Example 4a, 2-[3-(1-benzyl-1H-imidazol-2-yl)-5-fluorophenyl]-5-(difluoromethyl)-1,3,4-oxadiazole], the inhibition at 10 µM in assay [2] amounted to 99%.
